# Legend:
# human Kv1.5 = biological target: T1, human Kv1.5 (Homo sapiens, UniProt P22460); assay: Kv1.5 whole cell patch electrophysiology (AutoPatch / conventional); assay type: cell-based; conditions: 1 μM compound; cells stably transfected with human Kv1.5; whole cell mode; room temperature
# T1 construct: expressed in transfected cells
# Method: Kv1.5 Autopatch Electrophysiology Method
# (§1) Cells stably transfected with cDNA for human Kv1.5 (in pEF6::VA-His-TOPO) were grown in Dulbecco's Modified Eagle media (DMEM) alpha supplemented with 10% Fetal Calf Serum (FCS), 20 μl/ml penicillin (5000 U/ml) streptomycin (5000 μg/ml), 10 μl/ml [100×] glutamine, and blasticidin (7.5 μg/ml). Compounds were tested on these cells using the AutoPatch technology in whole cell mode.
# The external bathing solution contained (in mM): 150 NaCl, 10 KCl, 1 MgCl2, 3 CaCl2, 10 HEPES, pH 7.4 with NaOH. Patch pipettes were filled with an electrode solution of composition (in mM): 160 KCl, 0.5 MgCl2, 10 HEPES, 1 EGTA, pH 7.4 with KOH.
# (§2) Compounds were dissolved in DMSO (100%) and made up in the external bather at a concentration of 1 μM. All experiments were conducted at room temperature (22-24° C.).
# (§3) A cell suspension (10 ml), with a density of 100,000 cells/ml, was aliquoted into a 15 ml centrifuge tube and transferred to an incubator (37° C., 5% CO2) for approximately one hour before use. Following 60 min incubation, a tube was taken and centrifuged at 1000 rpm for 4 mins at room temperature. 9.5 ml supernatant was thence discarded, leaving a cell pellet at the bottom of the tube. The pellet was then resuspended using 100 μl of cold (4° C.), filtered (0.22 μm), 0.2% BSA/bather solution (0.02 g BSA/10 ml bather). The bottom of the tube was manually agitated gently until the solution became cloudy with cells. The 100 μl cell resuspension solution was then stored on the bench at 4° C. (using a Peltier-based temperature control device) until used.
# (§4) A length of capillary glass (1B150F-4, WPI) was dipped into the cell suspension solution, such that ˜3 cm column of fluid was taken up by capillary action. A Ag/AgCl wire was dropped into the non-dipped end of the capillary also. The outside of the solution-filled end of the capillary was then dried and the capillary was loaded into the AutoPatch™. Borosilicate glass patch pipettes (from 1.5 mm OD, thin-walled filamented, GC150-TF capillary glass, Harvard) were pulled using a DMZ pipette puller (Zeitz Instruments), and were back-filled using the internal pipette solution, being careful that no bubbles remain at the tip or in the body of the pipette. Patch pipettes typically had resistances of 2.3-3.5 MΩ. Once filled, the pipette tip and a proportion of the shaft (˜15 mm) were dipped into Sigmacote (Sigma). The recording pipette was then loaded into the AutoPatch™. Automated patch-clamping was initiated by the operator, but thereafter AutoPatch.exe continued the experiment providing that pre-set conditions and criteria were satisfied.
# (§5) Whole cell patch-clamp recordings were made using the AutoPatch™ rig, which incorporated an EPC9 or EPC10 amplifier (HEKA, Germany) under control of Pulse software (v8.54 or v8.76, HEKA, Germany), a motion controller with 2 translators (Newport, UK), valve controller (VF1) and a c-level suction device all at room temperature (22-24° C.). This equipment was completely under the control of AutoPatch.exe and operator intervention was only made when there was a requirement to refill the drug reservoirs or to prevent the loss of a cell due to a technical error. Cells with an Rseries greater than 18 MΩ were discounted from the experiment.
# (§6) Qualification stages prior to perfusion and drug application ensured that the observed current met the criteria for the experiment. Only those cells with an IK>500 pA were used for experiments. Cells were continuously perfused with external solution at a flow rate of 1.8-2 ml/minute. […] Online analysis of the hKv1.5 current during the application of compounds was performed by the AutoPatch™ software. Voltage-step protocols and analysis of data was performed as described for conventional electrophysiology.
# Electrophysiology voltage-step protocols and analysis of data was performed as follows. Data was sampled at 5kHz, and filtered with a −3 dB bandwidth of 2.5 kHz.
# Cells were held at a voltage of −80 mV. […]
# human Kv1.3 = biological target: T2, human Kv1.3 (Homo sapiens, UniProt P22001); assay: Kv1.3 whole cell patch electrophysiology (AutoPatch / conventional); assay type: cell-based; conditions: 1 μM compound; cells stably transfected with human Kv1.3; whole cell mode; room temperature
# T2 construct: expressed in transfected cells
# Method: Kv1.3 Autopatch Electrophysiology Method
# as §1, with “Kv1.3” for “Kv1.5 (in pEF6::VA-His-TOPO)”
# The external bathing solution contained (in mM): 150 NaCl, 10 KCl, 1 MgCl2, 3 CaCl2, 10 HEPES, pH 7.4 with NaOH. Patch pipettes were filled with an electrode solution of composition (in mM): 100 K-Gluconate, 20 KCl, 1 MgCl2, 1 CaCl2, 10 HEPES, 11 EGTA, 5 ATP-Na2, 2 Glutathione pH 7.2 with KOH.
# as §2, §3
# as §4, with “(˜15mm)” for “(˜15 mm)”
# as §5
# as §6, with “IK>400” for “IK>500”, “hKv1.3” for “hKv1.5”
# Electrophysiology voltage-step protocols and analysis of data was performed as follows. Data was sampled at 5 kHz, and filtered with a −3 dB bandwidth of 2.5 kHz. […]
# T2 sequence (P22001 whole entry): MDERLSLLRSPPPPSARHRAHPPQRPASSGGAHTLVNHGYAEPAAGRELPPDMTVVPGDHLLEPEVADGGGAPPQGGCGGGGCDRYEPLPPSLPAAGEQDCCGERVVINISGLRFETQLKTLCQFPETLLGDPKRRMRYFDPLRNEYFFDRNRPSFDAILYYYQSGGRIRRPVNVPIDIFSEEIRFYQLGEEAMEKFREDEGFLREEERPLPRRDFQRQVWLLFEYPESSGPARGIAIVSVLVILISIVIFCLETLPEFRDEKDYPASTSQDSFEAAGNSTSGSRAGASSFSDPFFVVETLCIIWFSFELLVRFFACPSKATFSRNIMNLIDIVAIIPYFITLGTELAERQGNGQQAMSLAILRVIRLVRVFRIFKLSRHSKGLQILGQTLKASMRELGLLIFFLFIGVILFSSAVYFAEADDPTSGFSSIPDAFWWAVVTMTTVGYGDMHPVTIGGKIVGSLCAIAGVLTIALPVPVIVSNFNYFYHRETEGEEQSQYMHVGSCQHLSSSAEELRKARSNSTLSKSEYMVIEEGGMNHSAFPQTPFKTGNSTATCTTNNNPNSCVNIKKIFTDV
# T1 sequence (P22460 whole entry): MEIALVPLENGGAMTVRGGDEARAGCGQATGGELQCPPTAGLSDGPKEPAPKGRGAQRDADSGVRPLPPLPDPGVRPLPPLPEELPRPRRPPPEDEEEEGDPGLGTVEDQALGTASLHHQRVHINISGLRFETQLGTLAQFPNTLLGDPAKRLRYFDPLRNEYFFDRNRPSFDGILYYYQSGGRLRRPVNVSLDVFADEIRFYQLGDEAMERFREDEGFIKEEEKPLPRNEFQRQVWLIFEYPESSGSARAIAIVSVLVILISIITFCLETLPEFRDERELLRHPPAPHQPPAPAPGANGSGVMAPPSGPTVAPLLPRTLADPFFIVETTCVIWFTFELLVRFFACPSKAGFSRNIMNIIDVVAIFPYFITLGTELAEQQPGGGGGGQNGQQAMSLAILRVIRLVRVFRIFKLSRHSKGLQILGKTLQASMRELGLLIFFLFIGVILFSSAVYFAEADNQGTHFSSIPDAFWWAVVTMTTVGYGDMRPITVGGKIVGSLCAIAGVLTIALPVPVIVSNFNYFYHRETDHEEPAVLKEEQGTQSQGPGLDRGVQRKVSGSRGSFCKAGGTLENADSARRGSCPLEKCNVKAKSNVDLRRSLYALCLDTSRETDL
inhibition at 1 µM (human Kv1.5) [%],inhibition at 1 µM (human Kv1.3) [%],Compound
88,72,"Clc1cc(NCc2ccccn2)c2c(-c3ccccc3)csc2n1 [Example 19, (6-Chloro-3-phenyl-thieno[2,3-b]pyridin-4-yl)-pyridin-2-ylmethyl-amine]"
93,99,"Clc1cc(NCc2ccccn2)nc2scc(-c3ccccc3)c12 [Example 20, (4-Chloro-3-phenyl-thieno[2,3-b]pyridin-6-yl)-pyridin-2-ylmethyl-amine]"
59,71,"Fc1ccc(-c2csc3nc(Cl)cc(NCc4ccccn4)c23)cc1 [Example 21, [6-Chloro-3-(4-fluoro-phenyl)-thieno[2,3-b]pyridin-4-yl]-pyridin-2-ylmethyl-amine]"
95,78,"Cc1cccc(CNc2cc(Cl)nc3scc(-c4ccc(F)cc4)c23)n1 [Example 22, [6-Chloro-3-(4-fluoro-phenyl)-thieno[2,3-b]pyridin-4-yl]-(6-methyl-pyridin-2-ylmethyl)-amine]"
79,93,"OCCNc1cc(NCc2ccccn2)c2c(-c3ccccc3)csc2n1 [Example 24, 2-{3-Phenyl-4-[(pyridin-2-ylmethyl)-amino]-thieno[2,3-b]pyridin-6-ylamino}-ethanol]"
81,82,"OCCN(CCO)c1cc(NCc2ccccn2)c2c(-c3ccccc3)csc2n1 [Example 25, 2-((2-Hydroxy-ethyl)-{3-phenyl-4-[(pyridin-2-ylmethyl)-amino]-thieno[2,3-b]pyridin-6-yl}-amino)-ethanol]"
91,45,"OCCN(CCO)c1cc(NCc2ccccn2)c2c(-c3ccc(F)cc3)csc2n1 [Example 26, 2-[{3-(4-Fluoro-phenyl)-4-[(pyridin-2-ylmethyl)-amino]-thieno[2,3-b]pyridin-6-yl}-(2-hydroxy-ethyl)-amino]-ethanol]"
55,72,"OCCNc1cc(NCc2ccccn2)c2c(-c3ccc(F)cc3)csc2n1 [Example 27, 2-{3-(4-Fluoro-phenyl)-4-[(pyridin-2-ylmethyl)-amino]-thieno[2,3-b]pyridin-6-ylamino}-ethanol]"
21,20,"Cc1cccc(CNc2cc(N(CCO)CCO)nc3scc(-c4ccc(F)cc4)c23)n1 [Example 28, 2-[{3-(4-Fluoro-phenyl)-4-[(6-methyl-pyridin-2-ylmethyl)-amino]-thieno[2,3-b]pyridin-6-yl}-(2-hydroxy-ethyl)-amino]-ethanol]"
31,62,"Cc1cccc(CNc2cc(NCCO)nc3scc(-c4ccc(F)cc4)c23)n1 [Example 29, 2-{3-(4-Fluoro-phenyl)-4-[(6-methyl-pyridin-2-ylmethyl)-amino]-thieno[2,3-b]pyridin-6-ylamino}-ethanol]"
62,45,"c1ccc(-c2csc3nccc(NCc4ccccn4)c23)cc1 [Example 35, (3-Phenyl-thieno[2,3-b]pyridin-4-yl)-pyridin-2-ylmethyl-amine]"
20,32,"Fc1ccc(-c2csc3nccc(NCc4ccccn4)c23)cc1 [Example 36, [3-(4-Fluoro-phenyl)-thieno[2,3-b]pyridin-4-yl]-pyridin-2-ylmethyl-amine]"
36,30,"Cc1cccc(CNc2ccnc3scc(-c4ccc(F)cc4)c23)n1 [Example 37, [3-(4-Fluoro-phenyl)-thieno[2,3-b]pyridin-4-yl]-(6-methyl-pyridin-2-ylmethyl)-amine]"
94,20,"OCCc1cc(NCc2ccccn2)c2c(-c3ccccc3)csc2n1 [Example 43, 2-{3-Phenyl-4-[(pyridin-2-ylmethyl)-amino]-thieno[2,3-b]pyridin-6-yl}-ethanol]"
82,8,"OCC(CO)c1cc(NCc2ccccn2)c2c(-c3ccccc3)csc2n1 [Example 44, 2-{3-Phenyl-4-[(pyridin-2-ylmethyl)-amino]-thieno[2,3-b]pyridin-6-yl}-propane-1,3-diol]"
